Laboratory results as given in US6855512B2, “Methods for identifying inhibitors of cytochrome P450RAI” (Allergan, Inc., priority 2000, dated 2005).

What was measured:
RARγ [1] = molecular target: T1, RARγ (Homo sapiens, UniProt P13631); assay: chimeric receptor transactivation assay, RARγ; format: cell-based; details: EC50 line of EC50/(EFFICACY)/Kd, read-out: RAR γ EC50
T1 sequence (P13631 185-454 limits assumed): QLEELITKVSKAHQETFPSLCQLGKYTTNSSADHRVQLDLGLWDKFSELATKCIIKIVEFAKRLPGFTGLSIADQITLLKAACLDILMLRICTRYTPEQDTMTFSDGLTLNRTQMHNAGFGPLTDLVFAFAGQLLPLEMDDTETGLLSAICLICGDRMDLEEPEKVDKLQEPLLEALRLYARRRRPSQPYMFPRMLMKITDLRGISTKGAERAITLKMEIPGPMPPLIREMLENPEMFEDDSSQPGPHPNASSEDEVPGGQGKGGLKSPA
Excerpt: (§1) Assays described below measure the ability of a compound to bind to, and/or activate various retinoid receptor subtypes. When in these assays a compound binds to a given receptor subtype and activates the transcription of a reporter gene through that subtype, then the compound is considered an agonist of that receptor subtype. […] In the below described assays the ability of the compounds to bind to RARα, RARβ, RARγ, RXRα, RXRβ and RXRγ receptors, and the ability or inability of the compounds to activate transcription of a reporter gene through these receptor subtypes can be tested.
(§2) The results obtained in this assay are expressed in EC50 numbers, as they are also in the chimeric receptor transactivation assay. The results of ligand binding assay are expressed in Kd numbers.

RARα [2] = molecular target: T2, RARα (Homo sapiens, UniProt P10276); assay: chimeric receptor transactivation assay, RARα; format: cell-based; details: EC50 line of EC50/(EFFICACY)/Kd, read-out: RAR α EC50
T2 sequence (P10276 183-417 limits assumed): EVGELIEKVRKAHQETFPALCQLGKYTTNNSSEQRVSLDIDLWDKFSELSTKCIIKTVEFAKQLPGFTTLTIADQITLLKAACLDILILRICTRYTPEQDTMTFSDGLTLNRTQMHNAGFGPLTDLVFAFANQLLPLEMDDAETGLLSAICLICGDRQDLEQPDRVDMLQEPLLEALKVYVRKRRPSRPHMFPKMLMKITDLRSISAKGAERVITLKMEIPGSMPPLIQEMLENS
Excerpt: as §1, §2

RARβ = molecular target: T3, RARβ (Homo sapiens, UniProt P10826); assay: chimeric receptor transactivation assay, RARβ; format: cell-based; details: EC50 line of EC50/(EFFICACY)/Kd, read-out: RAR β EC50
T3 sequence (P10826 183-417 limits assumed): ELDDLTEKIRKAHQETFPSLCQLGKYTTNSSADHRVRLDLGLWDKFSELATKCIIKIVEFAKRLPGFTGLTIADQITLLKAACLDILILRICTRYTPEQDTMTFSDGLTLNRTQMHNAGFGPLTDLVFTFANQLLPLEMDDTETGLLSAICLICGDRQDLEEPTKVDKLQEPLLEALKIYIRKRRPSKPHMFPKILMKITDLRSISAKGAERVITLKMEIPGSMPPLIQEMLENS
Excerpt: as §1, §2

RARγ [3] = molecular target: T4, RARγ (Homo sapiens, UniProt P13631); assay: ligand binding assay, RARγ; details: Kd line of EC50/(EFFICACY)/Kd, K = thousand, read-out: RAR γ Kd
T4 sequence (P13631 1-454): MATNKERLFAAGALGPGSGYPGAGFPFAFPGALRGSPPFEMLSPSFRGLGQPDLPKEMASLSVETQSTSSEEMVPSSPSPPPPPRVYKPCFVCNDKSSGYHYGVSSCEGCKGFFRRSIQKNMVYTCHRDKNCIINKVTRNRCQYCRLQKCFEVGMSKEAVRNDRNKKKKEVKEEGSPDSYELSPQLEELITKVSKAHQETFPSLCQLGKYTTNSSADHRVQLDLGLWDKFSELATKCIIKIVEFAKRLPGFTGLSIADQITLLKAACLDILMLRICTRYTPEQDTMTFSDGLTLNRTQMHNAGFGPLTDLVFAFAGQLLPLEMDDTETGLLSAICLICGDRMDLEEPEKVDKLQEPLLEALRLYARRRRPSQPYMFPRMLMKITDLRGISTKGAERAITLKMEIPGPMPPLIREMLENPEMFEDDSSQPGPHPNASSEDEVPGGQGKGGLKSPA
Excerpt: as §1, §2

RARα [4] = molecular target: T5, RARα (Homo sapiens, UniProt P10276); assay: ligand binding assay, RARα; details: Kd line of EC50/(EFFICACY)/Kd, K = thousand, read-out: RAR α Kd
T5 sequence (P10276 1-462): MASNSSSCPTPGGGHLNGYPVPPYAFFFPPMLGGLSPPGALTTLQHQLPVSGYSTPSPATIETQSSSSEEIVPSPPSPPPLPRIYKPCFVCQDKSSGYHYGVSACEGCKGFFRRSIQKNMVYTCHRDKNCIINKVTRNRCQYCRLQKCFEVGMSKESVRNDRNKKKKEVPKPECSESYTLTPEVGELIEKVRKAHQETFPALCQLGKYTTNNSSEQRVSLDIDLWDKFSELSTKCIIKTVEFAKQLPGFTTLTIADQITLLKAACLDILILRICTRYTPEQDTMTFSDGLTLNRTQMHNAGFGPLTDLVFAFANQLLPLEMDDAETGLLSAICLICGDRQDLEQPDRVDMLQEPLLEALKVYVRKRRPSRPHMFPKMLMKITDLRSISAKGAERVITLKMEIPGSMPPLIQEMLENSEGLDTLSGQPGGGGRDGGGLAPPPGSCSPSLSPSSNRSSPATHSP
Excerpt: as §1, §2

CC1(C)CC(C)(C)c2cc(C#Cc3ccc(C(=O)O)cc3)ccc2O1 [Compound 201]
EC50 (RARγ [1]): 180 nM | EC50 (RARα [2]): > 10000 nM | EC50 (RARβ): > 10000 nM | Kd (RARγ [3]): 4390 nM | Kd (RARα [4]): 90 nM
